Experimental data reported in patent publication US20240074473A1, “METHOD FOR INDUCING HYPERTROPHIC MUSCLE FIBERS FOR INDUSTRIAL MEAT PRODUCTION” (Yeda Research and Development Co. Ltd., priority 2021, published 2024).
Where two headings read alike, the source gives them in different places.

Columns and labels:
[1] = Risk categorization of cell culture media ingredients
Text: Category 1: These cell culture media components are food ingredients/additives that are GRAS or permitted by federal regulation without limitation on use. Exemplary compounds in this category include innocuous ingredients such as sugars, pH buffers, water soluble vitamins, and common antioxidants such as tocopherols.
Category 2: These cell culture media components are common dietary nutrients and are anticipated to have GRAS status for food use or be permitted by regulation for addition to food. Examples of such compounds include most of the inorganic salts and macronutrients that are present within the cell culture media. […] Majority of nutrients present within the poultry cell-based meat may be readily measured using common validated methods for food composition testing. Batch analyses of multiple lots of the finished product may be obtained to validate the above assumptions. In some instances, consideration of established safe levels (e.g., ADI, UL) derived from a relevant authoritative body (e.g., U.S. FDA, EFSA, JECFA, FSANZ, U.S. EPA) may be leveraged to support safety. If comparisons of anticipated dietary intakes relative to an authoritative reference intake value is used, consideration of additive intakes from all dietary sources may be considered. In the absence of an authoritative reference intake value, published NOAELs from animal toxicology studies may be used to evaluate safety using standard scientific procedures for food safety evaluation. A margin of exposure (MoE) of 100-fold or greater between the NOAEL and estimated dietary intakes from food exposures is typically considered adequate to support safety. in situations where the MoE is <100-fold, additional measures for further reduction of the media component may be necessary, or further characterization of intraspecies/interspecies differences in metabolism may be necessary. These situations also require careful consideration of the regulatory status on a case-by basis (e.g., premarket approval as a food additive or GRAS evaluation required).
For example, situations where the compound is not detectable in finished product or is present at equivalent levels in comparator foods, compounds that are thermo-labile and will be digested during cooking, and/or compounds that are expected to be digested to innocuous compounds following ingestion. Examples of compounds meeting the aforementioned conditions would include recombinant growth factors and serum components. For Category 3 substances a final consideration in the safety assessment process may involve hazard characterization of the potential for a substance to produce toxic biological effects outside of the endpoints measured in a sub-chronic rat toxicity study. Substances with biological activity may require additional hazard characterization related to reproductive and developmental toxicity, or immunotoxicity. Considerations for allergenicity, biological effects in humans (e.g., effects on blood pressure), and synergistic effects with other media components also may be evaluated. […] Examples of category 3 components include recombinant proteins and animal serum.

[2] = Maximum estimated dietary exposure to media ingredients per 100 g serving; settings: assumption of complete transfer of media components to the finished product on a wt/wt basis
[3] = tested on: primary chicken myoblasts; assay: Fusion index of primary chicken myoblasts (MyHC immunostaining); type: cell-based; settings: primary chicken myoblasts, 48 hours; for Fusion index in combination with ERK inhibitor vs ERK inhibitor alone: proliferation media; for Fusion index: proliferation medium
Experimental: Chicken primary derived myoblasts were used as a model to evaluate the efficiency of SCH772984 as the ERKi, compared to conventional differentiation medium (DM) for the purpose of producing muscle (meat) in tissue culture conditions. Chicken myoblasts were isolated from chicken embryos and expanded in proliferation medium. When sufficient cell numbers were acquired, cells were seeded on tissue culture plates and allowed to adhere for 24 hours. Then medium was changed to either PM supplemented with ERKi or DM. At 24-hours post treatment, the cells that received ERKi were replenished with fresh PM (without the addition of more ERKi), and DM treated cells were replenished with fresh DM. Media was replaced daily over a period of 72 hours.
Evaluation of muscle fiber formation was achieved by fixing the cells and staining for expression of Myosin Heavy Chain (FIG. 9A). […] Yet, treatment with conventional DM only began to form fibers beginning at 72-hours post treatment. A fusion index was quantified at 72 hours post treatment (FIG. 9B), in which the percentage of total nuclei present in a myotube (MyHC positive cell with 2 or more nuclei).
Primary chicken myoblast isolation and treatment: chicken myoblasts were isolated from broiler chicken embryos at day 18 from breast and leg muscles by using Trypsin B. Following tissue dissociation, the cell suspension was grown for 3-4 days on 10% Matrigel coated plates. At the first passage, the cells were lifted and pre-plated twice for 30 minutes to enrich for myoblasts and reduce the number of fibroblasts. Then cells were seeded at 8,000/well of optical-96 well plates in proliferation medium. 24 hours after plating, media was aspirated and replaced with the indicated treatment conditions in proliferation media or differentiation media (as indicated). After 24 hours with treatment, the media was aspirated and all wells were replenished with fresh proliferation media or differentiation media without any treatment. This was repeated daily. Cells were fixed at 48 hours after treatment. Compounds were purchased from Cayman Chemicals.
Immunofluorescent staining: Cells were fixed with ice cold 4% PFA in PBS for 10 minutes, permeabilized with 0.5% Triton X-100 in PBS for 6 minutes, and blocked in PBS with 0.025% tween, 10% normal horse serum and 10% normal goat serum for 1 hour at room temperature. Primary antibody incubation was done in blocking buffer overnight at 4 degrees, with the following antibodies: Myosin Heavy Chain (MyHC, MF20, DSHB hybridoma supernatant 1:10, alpha-actinin (SIGMA A7811). Cells were washed 3 times in PBS with 0.025% tween and then incubated with appropriate secondary antibodies in PBS 1 hour. Nuclei were labeled with DAPI (SIGMA D9542, 5 ug/ml). All fusion indexes and imaging analysis were performed on at least 1000 per technical repeat.

[4] = cell culture media ingredient used during meat production
[5] = SCH772984 1 uM plus 9-cis RA 200 nM, AM80 200 nM, AM580 100 nM, CH55 200 nM, TTNPB 200 nM, Fenretinide 200 nM

## BOVINE SERUM ALBUMIN: animal component of cell culture media
[1]
  Risk Assessment Category: 3

## Nc1nc2ncc(CNc3ccc(C(=O)N[C@@H](CCC(=O)O)C(=O)O)cc3)nc2c(=O)[nH]1 [FOLIC ACID]
[1]
  Risk Assessment Category: 1
[2]
  Maximum Estimated Exposure per 100 g serving: 60 mg

## Cl.N[C@@H](CS)C(=O)O.O [L-CYSTEINE HCL H20]
[1]; [4]
  Risk Assessment Category: 2

## FGF2 (FIBROBLAST GROWTH FACTOR-BASIC): growth factor of cell culture media
[1]
  Risk Assessment Category: 3

## C/C(=C\c1ccc(C(=O)O)cc1)c1ccc2c(c1)C(C)(C)CCC2(C)C [TTNPB]
[3]; [5]
  Fusion index in combination with ERK inhibitor vs ERK inhibitor alone: significantly increased the fusion index

## CC[C@H](C)[C@H](N)C(=O)O [L-ISOLEUCINE]
[1]
  Risk Assessment Category: 2

## CC1=C(/C=C/C(C)=C\C=C\C(C)=C\C(=O)O)C(C)(C)CCC1 [9-cis retinoic acid]
[3]; [5]
  Fusion index in combination with ERK inhibitor vs ERK inhibitor alone: significantly increased the fusion index

## CC(C)(C)c1cc(C(=O)/C=C/c2ccc(C(=O)O)cc2)cc(C(C)(C)C)c1 [CH55]
[3]; [5]
  Fusion index in combination with ERK inhibitor vs ERK inhibitor alone: significantly increased the fusion index

## O=C1O[C@H]([C@@H](O)CO)C(O)=C1O [ASCORBIC ACID]
[1]
  Risk Assessment Category: 1
[2]
  Maximum Estimated Exposure per 100 g serving: 2000 mg

## N[C@@H](CCC(=O)N[C@@H](CS)C(=O)NCC(=O)O)C(=O)O [L-GLUTATHIONE]
[1]
  Risk Assessment Category: 2
[2]
  Maximum Estimated Exposure per 100 g serving: 36 mg

## PDGF-BB (PLATELET DERIVED GROWTH FACTOR-BB): growth factor of cell culture media
[1]
  Risk Assessment Category: 3

## C[N+](C)(C)CCO.[Cl-] [CHOLINE CHLORIDE]
[1]
  Risk Assessment Category: 1
[2]
  Maximum Estimated Exposure per 100 g serving: 52 mg

## O.O=P([O-])(O)O.[Na+] [SODIUM PHOSPHATE MONOBASIC H20]
[1]; [4]
  Risk Assessment Category: 1
[2]
  Maximum Estimated Exposure per 100 g serving: 1500 mg

## N[C@@H](Cc1ccc([O-])cc1)C(=O)[O-].O.O.[Na+].[Na+] [L-TYROSINE-2NA-2H20]
[1]; [4]
  Risk Assessment Category: 2

## Cl.Cl.N[C@@H](CSSC[C@H](N)C(=O)O)C(=O)O [L-CYSTINE 2HCL]
[1]
  Risk Assessment Category: 2

## O=C[C@H](O)[C@@H](O)[C@H](O)[C@H](O)CO [D-GLUCOSE]
[1]
  Risk Assessment Category: 1

## O=C(O)CCCC[C@@H]1SC[C@@H]2NC(=O)N[C@@H]21 [D-BIOTIN]
[1]
  Risk Assessment Category: 1
[2]
  Maximum Estimated Exposure per 100 g serving: 4 mg

## NC(=O)C[C@H](N)C(=O)O.O [L-ASPARAGINE-H20]
[1]
  Risk Assessment Category: 2

## CCOC(=O)CCCCCCCCCCCN(C)C(=O)CO[C@H](C)[C@@H](C)OCC(=O)N(C)CCCCCCCCCCCC(=O)OCC [calcium ionophore I]
[3]; ionophore 2 uM plus ERKi 1 uM
  Fusion index: 89%

## Cl.NCCCC[C@H](N)C(=O)O [L-LYSINE-HCL]
[1]; [4]
  Risk Assessment Category: 2

## CC1(C)CCC(C)(C)c2cc(NC(=O)c3ccc(C(=O)O)cc3)ccc21 [AM80]
[3]; [5]
  Fusion index in combination with ERK inhibitor vs ERK inhibitor alone: significantly increased the fusion index

## N[C@@H](Cc1ccccc1)C(=O)O [L-PHENYLALANINE]
[1]; [4]
  Risk Assessment Category: 2

## CC1=C(/C=C/C(C)=C/C=C/C(C)=C/C(=O)Nc2ccc(O)cc2)C(C)(C)CCC1 [Fenretinide]
[3]; [5]
  Fusion index in combination with ERK inhibitor vs ERK inhibitor alone: significantly increased the fusion index

## O[C@H]1[C@H](O)[C@@H](O)[C@H](O)[C@@H](O)[C@H]1O [MYO-INOSITOL]
[1]
  Risk Assessment Category: 1
[2]
  Maximum Estimated Exposure per 100 g serving: 430 mg

## CSCC[C@H](N)C(=O)O [L-METHIONINE]
[1]
  Risk Assessment Category: 2

## C[C@H](N)C(=O)O [L-ALANINE]
[1]
  Risk Assessment Category: 2

## Cc1ncc(CO)c(CO)c1O.Cl [PYRIDOXINE-HCL]
[1]; [4]
  Risk Assessment Category: 1
[2]
  Maximum Estimated Exposure per 100 g serving: 25 mg

## CNc1ccc2oc(C[C@H]3O[C@@]4(CC[C@H]3C)O[C@H]([C@H](C)C(=O)c3ccc[nH]3)[C@H](C)C[C@H]4C)nc2c1C(=O)O [calcimycin]
[3]; ionophore 1 uM plus ERKi 1 uM
  Fusion index: 94%

## N[C@@H](Cc1c[nH]c2ccccc12)C(=O)O [L-TRYPTOPHAN]
[1]
  Risk Assessment Category: 2

## Cl.N[C@@H](Cc1cnc[nH]1)C(=O)O.O [L-HISTIDINE-HCL-H20]
[1]; [4]
  Risk Assessment Category: 2

## Cc1ncc(CO)c(C=O)c1O.Cl [PYRIDOXAL-HCL]
[1]
  Risk Assessment Category: 1

## CC(C)[C@H](N)C(=O)O [L-VALINE]
[1]
  Risk Assessment Category: 2

## CC1(C)CCC(C)(C)c2cc(C(=O)Nc3ccc(C(=O)O)cc3)ccc21 [AM580]
[3]; [5]
  Fusion index in combination with ERK inhibitor vs ERK inhibitor alone: significantly increased the fusion index

## O.O.O.O.O.O.O.O.O.O=[Si]([O-])[O-].[Na+].[Na+] [SODIUM METASILICATE-9H2O]
[1]
  Risk Assessment Category: 1
[2]
  Maximum Estimated Exposure per 100 g serving: 1.6 mg

## Cn1c(=O)c2c(ncn2C)n(C)c1=O [Caffeine]
[3]; SCH772984 1 uM plus Caffeine 2 mM or Suramin 10 μM
  Fusion index in combination with ERK inhibitor vs ERK inhibitor alone: significantly increased the fusion index

## C[C@H](CCC(=O)O)C[C@H](C)C[C@H](C)C(=O)/C=C(\O)[C@H](C)C[C@H](C)C/C=C/[C@@H](C)[C@@H](O)[C@@H](C)[C@@H](O)C[C@@H]1CC[C@@](C)([C@H]2CC[C@@](C)([C@@H](C)O)O2)O1 [ionomycin]
[3]; ionophore 2 uM plus ERKi 1 uM
  Fusion index: 89%

## N[C@@H](CO)C(=O)O [L-SERINE]
[1]
  Risk Assessment Category: 2

## IGF-1 (INSULIN-LIKE GROWTH FACTOR 1): growth factor of cell culture media
[1]
  Risk Assessment Category: 3

## C[C@@H](O)[C@H](N)C(=O)O [L-THREONINE]
[1]
  Risk Assessment Category: 2
